Consider 68 compounds from patent US20090047246A1, “NOVEL INHIBITORS OF HEPATITIS C VIRUS REPLICATION” (InterMune, Inc., priority 2007, published 2009).

Each structure is given as a SMILES string.

The target of the first test is T1, HCV NS3 helicase (Hepatitis C virus genotype 1b, UniProt P26663).
T1 construct: full-length NS3 (1-631), purified at Array BioPharma
T1 sequence (P26663 1027-1657): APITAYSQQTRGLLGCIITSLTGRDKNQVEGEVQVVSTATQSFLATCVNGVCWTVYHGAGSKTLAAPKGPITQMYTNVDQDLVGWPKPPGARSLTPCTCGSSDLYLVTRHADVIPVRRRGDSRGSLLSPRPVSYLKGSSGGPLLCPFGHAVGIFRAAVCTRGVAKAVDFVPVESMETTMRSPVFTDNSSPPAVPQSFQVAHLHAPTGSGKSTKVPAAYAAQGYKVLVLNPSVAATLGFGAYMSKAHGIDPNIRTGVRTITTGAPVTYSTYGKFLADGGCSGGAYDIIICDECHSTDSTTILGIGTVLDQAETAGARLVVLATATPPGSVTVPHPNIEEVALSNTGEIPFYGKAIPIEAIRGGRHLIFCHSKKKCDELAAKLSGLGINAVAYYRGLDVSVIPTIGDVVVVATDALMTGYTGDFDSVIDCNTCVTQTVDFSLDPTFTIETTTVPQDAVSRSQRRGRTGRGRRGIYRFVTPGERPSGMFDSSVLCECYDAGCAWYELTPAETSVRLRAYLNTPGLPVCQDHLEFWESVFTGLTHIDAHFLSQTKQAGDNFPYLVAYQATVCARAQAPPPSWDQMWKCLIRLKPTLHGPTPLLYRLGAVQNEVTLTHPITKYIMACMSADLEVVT
In words: HCV Helicase Prompt FRET Assay (Example A). Format: biochemical. The note with it: HCV NS3 helicase; tables do not say whether Example A or Example B assay; read-out: IC50 Activity. The method in brief: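 Full-length NS3 (1-631), 5 or 6 nM, preincubated 5 min with compound, then unwinds 50 nM FAM/BHQ-1 duplex substrate with 250 nM capture strand and 300 μM ATP in 25 mM MOPS pH 7.0, 1.5 mM MgCl2, 0.005% Triton X-100, 2% DMSO. Fluorescence (485/535 nm) followed ~30 min at room temperature; IC50 from initial rates by 4- or 5-parameter fit.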
`O=C(O)Cc1cn(Cc2cccc(-c3cncnc3)c2)c2ccc(OCc3ccccc3)cc12` [Example 119]: the IC50 was in the range of 10 to 50 µM.
For the compound `O=C(O)Cc1cn(Cc2csc(-c3ccccc3)n2)c2ccc(OCc3ccccc3)cc12` [Example 125], the IC50 lay in the range of 10 to 50 µM.
Still for that read-out and setting: the value for `CN(Cc1cccnc1)c1ccc(-n2cc(CC(=O)O)c3ccccc32)cc1` [Example 180] was 10 to 50 µM.
The same measure, in the same setting: next, `N#CCc1cn(Cc2csc3ccc(Cl)cc23)c2ccc(CNC(=O)c3ccccc3)cc12` [Example 211]: 10 to 50 µM; `O=C(O)Cc1cn(Cc2csc3ccc(Cl)cc23)c2c(Oc3ccc([N+](=O)[O-])cc3)cccc12` [Example 356]: less than 10 µM.
On the same count and under the same terms, next, `O=C(O)Cc1cn(-c2ccc(-c3ccccc3Cl)cc2)c2ccccc12` [Example 153]: less than 10 µM.
Consider `CN(c1cccc(Cn2cc(CC(=O)O)c3ccccc32)c1)c1c(Cl)cccc1Cl` [Example 540], for which the IC50 is less than 10 µM.
Same read-out and setting: the value for `O=C(O)Cc1cn(Cc2cccc(Oc3ccccc3C(F)(F)F)c2)c2ccccc12` [Example 481] was less than 10 µM; that for `NC(=O)c1cccc(-c2cccc(Cc3[nH]c4ccccc4c3CC(=O)O)c2)c1` [Example 301] was 10 to 50 µM; that for `O=C(O)Cc1c(C(=O)c2cccc(Oc3ccccc3)c2)n(CC2CC2)c2ccccc12` [Example 221] was less than 10 µM.
On the same count and under the same terms, the value for `CN(Cc1ccccc1)c1ccc(-n2cc(CC(=O)O)c3ccccc32)cc1` [Example 162] was less than 10 µM; that for `O=C(O)Cc1cn(Cc2cccc(Oc3ccccc3)c2)c2ccc(OCc3ccccc3)cc12` [Example 115] was less than 10 µM.
As for `N#CCc1cn(Cc2csc3ccc(Cl)cc23)c2ccc(CNS(=O)(=O)c3ccccc3)cc12` [Example 209], the IC50 lay in the range of 10 to 50 µM.
On the same count and under the same terms, the value for `COc1ccc(OC)c(N(C)c2cccc(Cn3cc(CC(=O)O)c4ccccc43)c2)c1` [Example 543] was less than 10 µM; that for `CCCNC(=O)Cc1cn(Cc2cccc(OCc3ccccc3)c2)c2ccc(Br)cc12` [Example 183] was 10 to 50 µM; that for `CN(c1ccc(F)cc1)c1cccc(Cn2cc(CC(=O)O)c3ccccc32)c1` [Example 522] was less than 10 µM.
On the same count and under the same terms, the value for `CCOC(=O)Cc1cn(Cc2ccc(Oc3cccc(OC)c3)cc2)c2cc(-c3cccc(OC(C)=O)c3)ccc12` [Example 602] was 10 to 50 µM.
Turning to `Nc1cccc(-c2ccc3c(CC(=O)O)cn(Cc4csc5ccc(Cl)cc45)c3c2)c1` [Example 363], the 50% inhibitory concentration (IC50) is less than 10 µM.
Still for that read-out and setting: the value for `O=C(O)Cc1c(C(=O)c2cccc(-c3ccc(Cl)cc3Cl)c2)oc2ccccc12` [Example 242] was less than 10 µM.
On the same count and under the same terms, the value for `Cc1cc(-c2ccc(Cc3[nH]c4ccccc4c3CC(=O)O)cc2)ccc1Cl` [Example 281] was less than 10 µM; that for `O=C(O)Cc1cn(Cc2cccc(-c3ccccc3)c2)c2ccc(OCc3ccccc3)cc12` [Example 112] was less than 10 µM.
Still for that read-out and setting: next, `CCN(Cc1ccccc1)c1ccc(-n2nc(CC(=O)O)c3ccccc32)c(C)c1` [Example 175]: 10 to 50 µM; `O=C(O)Cc1cn(Cc2ccc(Oc3cccc(C(F)(F)F)c3)cc2)c2ccccc12` [Example 503]: less than 10 µM.
For `O=C(O)Cc1c(C(=O)c2ccc(-c3ccc(Cl)cc3)cc2)[nH]c2ccccc12` [Example 252], the 50% inhibitory concentration (IC50) is 10 to 50 µM.
For `CCS(=O)(=O)NC(=O)Cc1cn(Cc2csc3ccc(Cl)cc23)c2ccccc12` [Example 197], the half-maximal inhibitory concentration (IC50) was 10 to 50 µM.
As to `O=C(O)Cc1cn(Cc2ccc(Oc3ccc(Cl)cc3)cc2)c2ccccc12` [Example 498], the 50% inhibitory concentration (IC50) was less than 10 µM.
Consider `O=C(Cn1cc(Cc2nnn[nH]2)c2ccccc21)c1ccccc1` [Example 214], for which the IC50 fell in the range of 10 to 50 µM.
Same read-out and setting: next, `O=C(O)Cc1c(C(=O)c2ccc(-c3ccncc3)cc2)[nH]c2ccccc12` [Example 247]: 10 to 50 µM.
Same read-out and setting: next, `CN(c1cccc(Cn2cc(CC(=O)O)c3ccccc32)c1)c1ccc(F)cc1F` [Example 534]: 10 to 50 µM; `CC(C)Oc1ccc2scc(Cn3cc(CC(=O)O)c4cc(Br)ccc43)c2c1` [Example 140]: less than 10 µM; `CSc1cccc(-c2cccc(C(=O)c3[nH]c4ccccc4c3CC(=O)O)c2)c1` [Example 228]: 10 to 50 µM.
Same read-out and setting: next, `CS(=O)(=O)NC(=O)Cc1cn(Cc2cccc(OCc3ccccc3)c2)c2ccc(OCc3ccccc3)cc12` [Example 192]: less than 10 µM; `CC(C)c1ccc(Cn2cc(C(=O)C(=O)O)c3ccccc32)cc1` [Example 417]: 10 to 50 µM; `COc1ccc(OC)c(Oc2cccc(Cn3cc(CC(=O)O)c4ccccc43)c2)c1` [Example 490]: 10 to 50 µM.
Regarding `C=COc1ccc2c(CC(=O)O)cn(Cc3csc4ccc(Cl)cc34)c2c1` [Example 352], the 50% inhibitory concentration (IC50) was less than 10 µM.
The same measure, in the same setting: the value for `Cc1cc([N+](=O)[O-])ccc1-n1cc(CC(=O)O)c2cc(Br)cnc21` [Example 324] was greater than 50 µM; that for `O=C(O)Cc1c(C(=O)c2ccc(-c3ccccc3Cl)cc2)[nH]c2ccccc12` [Example 255] was 10 to 50 µM.
On the same count and under the same terms, next, `CC(C)(C)OC(=O)NCc1cccc(-c2ccc(C(=O)c3[nH]c4ccccc4c3CC(=O)O)cc2)c1` [Example 268]: less than 10 µM.
Same read-out and setting: next, `CC(C)c1ccc(Cn2cc(C(NC(N)=O)C(=O)O)c3ccccc32)cc1` (centres unmarked) [Example 423]: 10 to 50 µM; `O=Cc1c[nH]c2cnc(OCc3ccccc3)cc12` [Example 326]: greater than 50 µM; `CCCN(Cc1ccccc1)c1ccc(-n2cc(CC(=O)O)c3ccccc32)cc1` [Example 170]: 10 to 50 µM.
Regarding `CCOC(=O)Cc1cn(Cc2cccc(N(C)c3ccc(Cl)c(Cl)c3)c2)c2ccccc12` [Example 550], the IC50 is greater than 50 µM.
With `COC(=O)/C=C/c1cnc2c(c1)c(CC(=O)O)cn2-c1ccc(NCCC(=O)OC)cc1C` [Example 334], the IC50 lay within 10 to 50 µM.
On to `CC(C)c1ccc(Cn2c(C(=O)NC3CCCCC3)c(CC(=O)O)c3cc(Br)ccc32)cc1` [Example 435], for which the half-maximal inhibitory concentration (IC50) lay within 10 to 50 µM.
Take `CN(c1cccc(Cn2cc(CC(=O)O)c3ccccc32)c1)c1ccc(Cl)c(Cl)c1` [Example 541]: the concentration for half-maximal inhibition (IC50) was less than 10 µM.
On the same count and under the same terms, the value for `O=C(O)Cc1c(Cc2ccc(-c3ccccc3Cl)cc2)[nH]c2ccccc12` [Example 279] was less than 10 µM; that for `O=C(O)Cc1cn(Cc2ccc(Oc3cc(F)cc(F)c3)cc2)c2ccccc12` [Example 506] was less than 10 µM; that for `COc1ccccc1Oc1cccc(Cn2cc(CC(=O)O)c3ccccc32)c1` [Example 478] was 10 to 50 µM.
The same measure, in the same setting: the value for `Cc1cc([N+](=O)[O-])ccc1-n1cc(C(CC2CC2)C(=O)O)c2ccccc21` (centres unmarked) [Example 416] was 10 to 50 µM; that for `Cc1cc([N+](=O)[O-])ccc1-n1cc(CC(=O)O)c2cccnc21` [Example 319] was greater than 50 µM.

The same test, now with this note: Table 21, compounds made using Scheme 28; read-out: IC50 Activity.
Consider `CN(c1ccc(Cn2cc(CC(=O)O)c3ccccc32)cc1)c1ccccc1C(F)(F)F` [Example 565], for which the IC50 is less than 10 µM.
With `CCOC(=O)Cc1cn(Cc2ccc(N(C)c3ccccc3F)cc2)c2ccccc12` [Example 583], the IC50 lay in the range of 10 to 50 µM.

Staying with this test, now noted: Table 23, compounds made using Scheme 30; read-out: IC50 Activity.
With `O=C(O)Cc1cn(Cc2cccc(Oc3ccc(Cl)cc3Cl)c2)c2ccccc12` [Example 596], the half-maximal inhibitory concentration (IC50) was less than 10 µM.
As for `O=C(O)Cc1cn(Cc2cccc(Oc3c(Cl)cccc3Cl)c2)c2ccccc12` [Example 600], the IC50 lay in the range of 10 to 50 µM.

The same test, now with this note: Table 25, compounds made using Scheme 32; read-out: IC50 Activity.
On to `CCOC(=O)Cc1cn(Cc2ccc(Oc3ccc(Cl)cc3)cc2)c2cc(-c3cc(N)cc(N)c3)ccc12` [Example 613], for which the IC50 fell in the range of 10 to 50 µM.

Still in this test, the particulars now being: Table 26, compounds made using Scheme 33; read-out: IC50 Activity.
On to `O=C(O)Cc1cn(Cc2csc3ccc(Cl)cc23)c2cc(-c3ccccc3)ccc12` [Example 614], for which the concentration for half-maximal inhibition (IC50) is less than 10 µM.

Staying with this test, now noted: Table 28, compounds made using Scheme 35; read-out: IC50 Activity.
`CC(C)c1ccc(Cn2cc(CC(=O)O)c3ccc(-c4cc(N)cc(N)c4)cc32)cc1` [Example 619]: the IC50 was less than 10 µM.

Still in this test, the particulars now being: Table 31, compounds made using Schemes 38-45; read-out: IC50 Activity.
As to `CNc1cc(NC)cc(-c2ccc3c(CC(=O)O)cn(Cc4csc5ccc(Cl)cc45)c3c2)c1` [Example 646], the 50% inhibitory concentration (IC50) was less than 10 µM.

Still in this test, the particulars now being: Table 32, compounds made using Schemes 46-49; read-out: IC50 Activity.
On to `CC(C)(C)OC(=O)Nc1nnc(-c2ccc3c(CC(=O)O)cn(Cc4csc5ccc(Cl)cc45)c3c2)s1` [Example 659], for which the concentration for half-maximal inhibition (IC50) was 10 to 50 µM.

The test is the same for the next values; noted with them: Table 35, compounds made using Scheme 53; read-out: IC50 Activity.
Turning to `Nc1cc(N)cc(-c2ccc3c(CC(=O)O)cn(Cc4cccc5sc(O)nc45)c3c2)c1` [Example 708], the 50% inhibitory concentration (IC50) fell in the range of 10 to 50 µM.

Staying with this test, now noted: Table 36, compounds made using Scheme 54; read-out: IC50 Activity.
With `O=C(O)Cc1cn(Cc2csc3cc(Cl)ccc23)c2cc(Br)ccc12` [Example 785], the IC50 is greater than 50 µM.
On the same count and under the same terms, next, `Cc1sc2ccc(Cl)cc2c1Cn1cc(CC(=O)O)c2ccc(Br)cc21` [Example 777]: 10 to 50 µM.
On the same count and under the same terms, the value for `CCOC(=O)Cc1cn(Cc2csc3c(Cl)c(Cl)ccc23)c2cc(Br)ccc12` [Example 779] was greater than 50 µM; that for `CCOC(=O)Cc1cn(Cc2c(CC)sc3ccc(Cl)cc23)c2cc(-c3cc([N+](=O)[O-])cc([N+](=O)[O-])c3)ccc12` [Example 720] was greater than 50 µM.
Consider `Cc1sc2cc(Cl)c(F)cc2c1Cn1cc(CC(=O)O)c2ccc(-c3cc(N)cc(N)c3)cc21` [Example 788], for which the 50% inhibitory concentration (IC50) was less than 10 µM.

Staying with this test, now noted: Table 37, compounds made using Scheme 55; read-out: IC50 Activity.
Take `O=C(O)Cc1cn(Cc2csc3ccc(Cl)cc23)c2cc(-c3cccc(CO)c3)ccc12` [Example 760]: the IC50 lay in the range of 10 to 50 µM.
On the same count and under the same terms, next, `N#Cc1cccc(-c2ccc3c(CC(=O)O)cn(Cc4csc5ccc(Cl)cc45)c3c2)c1` [Example 756]: 10 to 50 µM; `Cc1sc2ccc(Cl)cc2c1Cn1cc(CC(=O)O)c2ccc(-c3ccccc3)cc21` [Example 770]: less than 10 µM.
